Test results from US20090131468A1, “Bis-(Sulfonylamino) Derivatives in Therapy 065” (AstraZeneca AB, priority 2007, published 2009).

Molecular target: T1, human mPGES-1 (Homo sapiens, UniProt O14684)
T1 sequence (O14684 1-152): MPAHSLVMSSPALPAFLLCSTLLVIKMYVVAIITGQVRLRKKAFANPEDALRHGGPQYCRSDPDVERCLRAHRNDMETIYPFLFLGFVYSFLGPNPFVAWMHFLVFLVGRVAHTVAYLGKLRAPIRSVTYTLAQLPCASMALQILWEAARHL
Assay: Microsomal prostaglandin E synthase biochemical assay
Conditions: microsome preparation containing human mPGES-1; PGH2 10.8 μM, GSH 2.5 mM, pH 6.8; PGE2 quantified by HTRF; average of at least n=2
Protocol: Compounds were tested as inhibitors of microsomal prostaglandin E synthase activity in microsomal prostaglandin E synthase assays and whole cell assays. These assays measure prostaglandin E2 (PGE2) synthesis which is taken as a measure of prostaglandin E synthase activity. Microsomal prostaglandin E synthase biochemical assays used microsomal prostaglandin E synthase-1 in microsomal preparations. The source of the microsomes can be for example interleukin-1β-stimulated human A549 cells (which express human mPGES-1) or Sf9 cells transfected with plasmids encoding human mPGES-1 cDNA.
A solution of test compound was added to a diluted microsome preparation containing human mPGES-1 and pre-incubated for 15 minutes in potassium phosphate buffer pH 6.8 with cofactor glutathione (GSH). Corresponding solutions without test compound were used as positive controls, and corresponding solutions without test compound and without microsomes were used as negative controls. The enzymatic reaction was then started by addition of the substrate PGH2 in an organic solution (dry acetonitrile).
The reaction was stopped after one minute by adding an acidic solution (pH 1.9) of ferric chloride and citrate (final concentrations 7 mM and 47 mM respectively), by which the PGH2 was sequestered (the PGH2 is reduced to mainly 12-hydroxy heptadecatrineoic acid (12-HHT) which is not detected by the subsequent PGE2 detection step). The resulting solution was then pH neutralized by addition of potassium phosphate buffer, prior to diluting an aliquot of the resulting solution in a weak potassium phosphate buffer (50 mM, pH 6.8) containing 0.2% BSA (w/v). […] The PGE2 formed was quantified by use of a commercial HTRF based kit (catalogue #62PG2PEC or #62P2APEC from Cisbio International). 100% activity was defined as the PGE2 production in positive controls subtracted by the PGE2 production in the negative controls. IC50 values were then determined using standard procedures.

Row | SMILES | IC50
1 | NS(=O)(=O)c1ccccc1S(=O)(=O)NC(=O)c1csc2ccccc12 [Example 40, N-(2-Sulfamoylphenyl)sulfonylbenzothiophene-3-carboxamide] | 2200 nM
2 | CCOC(=O)c1ccc(-c2ccc(C(=O)NS(=O)(=O)c3ccccc3S(N)(=O)=O)o2)cc1 [Example 41, Ethyl 4-[5-[(2-Sulfamoylphenyl)sulfonylcarbamoyl]-2-furyl]benzoate] | 5400 nM
3 | CC(C)(C)C#Cc1ccc(C(=O)NS(=O)(=O)c2ccccc2S(N)(=O)=O)cc1 [Example 43, 4-(3,3-Dimethylbut-1-ynyl)-N-(2-sulfamoylphenylsulfonyl)benzamide] | 28 nM
4 | CC(C)(O)C#Cc1ccc(C(=O)NS(=O)(=O)c2ccccc2S(N)(=O)=O)cc1 [Example 44, 4-(3-Hydroxy-3-methylbut-1-ynyl)-N-(2-sulfamoylphenylsulfonyl)benzamide] | 240 nM
5 | Cc1cc(-c2cc3ccccc3o2)ccc1C(=O)NS(=O)(=O)c1ccccc1S(N)(=O)=O [Example 46, 4-(Benzofuran-2-yl)-2-methyl-N-(2-sulfamoylphenylsulfonyl)benzamide] | 46 nM
6 | COc1cc(C(=O)NS(=O)(=O)c2ccccc2S(N)(=O)=O)cc(OC)c1-c1cc2ccccc2o1 [Example 47, 4-(Benzofuran-2-yl)-3,5-dimethoxy-N-(2-sulfamoylphenylsulfonyl)benzamide] | 140 nM
7 | COc1cc(C(=O)NS(=O)(=O)c2ccccc2S(N)(=O)=O)ccc1-c1cc2ccccc2o1 [Example 50, 4-(Benzofuran-2-yl)-3-methoxy-N-(2-sulfamoylphenylsulfonyl)benzamide] | 3.2 nM
8 | NS(=O)(=O)c1ccccc1S(=O)(=O)NC(=O)c1ccc(-c2cc3ccccc3o2)c(O)c1 [Example 51, 4-(Benzofuran-2-yl)-3-hydroxy-N-(2-sulfamoylphenylsulfonyl)benzamide] | 3.4 nM
9 | Cc1cc(-c2cc3ccccc3o2)cc(C)c1C(=O)NS(=O)(=O)c1ccccc1S(N)(=O)=O [Example 52, 4-(Benzofuran-2-yl)-2,6-dimethyl-N-(2-sulfamoylphenylsulfonyl)benzamide] | 450 nM
10 | COCC#Cc1ccc(C(=O)NS(=O)(=O)c2ccccc2S(N)(=O)=O)cc1 [Example 53, 4-(3-Methoxyprop-1-ynyl)-N-(2-sulfamoylphenylsulfonyl)benzamide] | 1600 nM
11 | CCC(O)(C#Cc1ccc(C(=O)NS(=O)(=O)c2ccccc2S(N)(=O)=O)cc1)CC [Example 56, 4-(3-Ethyl-3-hydroxypent-1-ynyl)-N-(2-sulfamoylphenylsulfonyl)benzamide] | 2300 nM
12 | CCC(C)(O)C#Cc1ccc(C(=O)NS(=O)(=O)c2ccccc2S(N)(=O)=O)cc1 (stereo not shown) [Example 57, 4-(3-Hydroxy-3-methylpent-1-ynyl)-N-(2-sulfamoylphenylsulfonyl)benzamide] | 8800 nM
13 | NS(=O)(=O)c1ccccc1S(=O)(=O)NC(=O)c1ccc(C#CC2(O)CCCC2)cc1 [Example 58, 4-((1-Hydroxycyclopentyl)ethynyl)-N-(2-sulfamoylphenylsulfonyl)benzamide] | 1900 nM
14 | CC(C)(O)C#Cc1cccc(C(=O)NS(=O)(=O)c2ccccc2S(N)(=O)=O)c1 [Example 59, 3-(3-Hydroxy-3-methylbut-1-ynyl)-N-(2-sulfamoylphenylsulfonyl)benzamide] | 56 nM
15 | CC(C)(C)C#Cc1ccc(C(=O)NS(=O)(=O)c2ccccc2S(N)(=O)=O)c2ccccc12 [Example 61, 4-(3,3-Dimethylbut-1-ynyl)-N-(2-sulfamoylphenylsulfonyl)-1-naphthamide] | 99 nM
16 | NS(=O)(=O)c1ccccc1S(=O)(=O)NC(=O)c1ccc(-c2cc3ccccc3o2)c2ccccc12 [Example 62, 4-(Benzofuran-2-yl)-N-(2-sulfamoylphenylsulfonyl)-1-naphthamide] | 20 nM
17 | CC(C)(O)C#Cc1cccc(-c2ccccc2C(=O)NS(=O)(=O)c2ccccc2S(N)(=O)=O)c1 [Example 64, 3′-(3-Hydroxy-3-methylbut-1-ynyl)-N-(2-sulfamoylphenylsulfonyl)biphenyl-2-carboxamide] | 6200 nM
18 | NS(=O)(=O)c1ccccc1S(=O)(=O)NC(=O)c1ccc(C#CC2CCCC2)cc1 [Example 65, 4-(Cyclopentylethynyl)-N-(2-sulfamoylphenylsulfonyl)benzamide] | 14 nM
19 | NS(=O)(=O)c1ccccc1S(=O)(=O)NC(=O)c1cccc(C#CC2CCCC2)c1 [Example 66, 3-(Cyclopentylethynyl)-N-(2-sulfamoylphenylsulfonyl)benzamide] | 220 nM
20 | COc1c(-c2cc3ccccc3o2)ccc(C(=O)NS(=O)(=O)c2ccccc2S(N)(=O)=O)c1C [Example 69, 4-(Benzofuran-2-yl)-3-methoxy-2-methyl-N-(2-sulfamoylphenylsulfonyl)benzamide] | 79 nM
21 | NS(=O)(=O)c1ccccc1S(=O)(=O)NC(=O)c1ccc(C#Cc2cccnc2)cc1 [Example 70, 4-(Pyridin-3-ylethynyl)-N-(2-sulfamoylphenylsulfonyl)benzamide] | 320 nM
22 | NS(=O)(=O)c1ccccc1S(=O)(=O)NC(=O)c1ccc(C#Cc2ccccn2)cc1 [Example 71, 4-(Pyridin-2-ylethynyl)-N-(2-sulfamoylphenylsulfonyl)benzamide] | 1000 nM
23 | CC(C)(C)C#Cc1ccc(C(=O)NS(=O)(=O)c2ccccc2S(N)(=O)=O)cc1F [Example 73, 4-(3,3-Dimethylbut-1-ynyl)-3-fluoro-N-(2-sulfamoylphenylsulfonyl)benzamide] | 60 nM
24 | COc1cccc(-c2cc3cc(C(=O)NS(=O)(=O)c4ccccc4S(N)(=O)=O)ccc3o2)c1 [Example 74, 2-(3-Methoxyphenyl)-N-(2-sulfamoylphenylsulfonyl)benzofuran-5-carboxamide] | 24 nM
25 | COc1ccc(-c2cc3cc(C(=O)NS(=O)(=O)c4ccccc4S(N)(=O)=O)ccc3o2)cc1 [Example 75, 2-(4-Methoxyphenyl)-N-(2-sulfamoylphenylsulfonyl)benzofuran-5-carboxamide] | 29 nM

Further molecules by falling IC50, results first:

Row | IC50 | SMILES
26 | 2000 nM | COc1c(C#CC(C)(C)C)ccc(C(=O)NS(=O)(=O)c2ccccc2S(N)(=O)=O)c1C [Example 68, 4-(3,3-Dimethylbut-1-ynyl)-3-methoxy-2-methyl-N-(2-sulfamoylphenylsulfonyl)-benzamide]
27 | 540 nM | NS(=O)(=O)c1ccccc1S(=O)(=O)NC(=O)c1ccc(Br)cc1O [Example 49a, 4-Bromo-2-hydroxy-N-(2-sulfamoylphenylsulfonyl)benzamide]
28 | 270 nM | CC(C)(C)C#Cc1cccc(C(=O)NS(=O)(=O)c2ccccc2S(N)(=O)=O)c1 [Example 60, 3-(3,3-Dimethylbut-1-ynyl)-N-(2-sulfamoylphenylsulfonyl)benzamide]
29 | 150 nM | COc1cc(-c2cc3ccccc3o2)ccc1C(=O)NS(=O)(=O)c1ccccc1S(N)(=O)=O [Example 48, 4-(Benzofuran-2-yl)-2-methoxy-N-(2-sulfamoylphenylsulfonyl)benzamide]
30 | 120 nM | NS(=O)(=O)c1ccccc1S(=O)(=O)NC(=O)c1ccc(C#Cc2ccccc2)nc1 [Example 55, 6-(Phenylethynyl)-N-(2-sulfamoylphenylsulfonyl)nicotinamide]
31 | 110 nM | Cc1nc(-c2cccc(Cl)c2)sc1C(=O)NS(=O)(=O)c1ccccc1S(N)(=O)=O [Example 42, 2-(3-Chlorophenyl)-4-methyl-N-(2-sulfamoylphenyl)sulfonyl-1,3-thiazole-5-carboxamide]
32 | 96 nM | Cc1nc(-c2cc3ccccc3o2)sc1C(=O)NS(=O)(=O)c1ccccc1S(N)(=O)=O [Example 63, 2-(Benzofuran-2-yl)-4-methyl-N-(2-sulfamoylphenylsulfonyl)thiazole-5-carboxamide]
33 | 85 nM | Cc1cc(C#CC2CCCC2)ccc1C(=O)NS(=O)(=O)c1ccccc1S(N)(=O)=O [Example 67, 4-(Cyclopentylethynyl)-2-methyl-N-(2-sulfamoylphenylsulfonyl)benzamide]
34 | 62 nM | C=C(C)C#Cc1ccc(C(=O)NS(=O)(=O)c2ccccc2S(N)(=O)=O)cc1 [Example 54, 4-(3-Methylbut-3-en-1-ynyl)-N-(2-sulfamoylphenylsulfonyl)benzamide]
35 | 10 nM | NS(=O)(=O)c1ccccc1S(=O)(=O)NC(=O)c1ccc(C#Cc2ccccc2)cc1 [Example 72, 4-(Phenylethynyl)-N-(2-sulfamoylphenylsulfonyl)benzamide]
36 | 8.1 nM | NS(=O)(=O)c1ccccc1S(=O)(=O)NC(=O)c1ccc(-c2cc3ccccc3o2)cc1O [Example 49, 4-(Benzofuran-2-yl)-2-hydroxy-N-(2-sulfamoylphenylsulfonyl)benzamide]
37 | 5.5 nM | Cc1cc(C(=O)NS(=O)(=O)c2ccccc2S(N)(=O)=O)ccc1-c1cc2ccccc2o1 [Example 45, 4-(Benzofuran-2-yl)-3-methyl-N-(2-sulfamoylphenylsulfonyl)benzamide]
